Entries after “also recorded” stand apart in the source; their conditions may differ. Where two headings read alike, the source gives them in different places.
Legend:
P2Y6 receptor [1] = target: T1, P2Y6 receptor (Homo sapiens, UniProt Q15077); test: Activation of P2Y6 receptor, receptor induced Ca2+ changes with fluo-4; assay type: cell-based; parameters: expressed in transfected cells; host or cells: 1321N1 human astrocytoma cells
Description: (§1) Synthetic ligands were tested for activation of P2Y6 receptor by measuring receptor induced Ca^2+ changes with the fluorescent Ca^2+ indicator fluo-4. 1321N1 human astrocytoma cell lines either expressing P2Y2, P2Y4 or P2Y6 receptors were plated into 24-well plates. Two days after plating, fluorometric measurements were made and responses of cells to a serial dilution of ligands were determined. P2Y6 mediated Ca^2+ fluorescent change was determined by normalized accumulation of fluorescent change of 3 timepoints after ligand administration subtracted by value from ACSF control. Changes in fluorescent intensity were plotted corresponding to ligand concention in GraphPad. Dose-response curve and EC50 for each ligand was estimated using nonlinear curve fit and Sigmoidal dose-response analysis. […] The ability of the sodium salt of compound 5 to elevate Ca^2+ signals in P2Y6 expressing cells was attenuated by addition of the P2Y6 antagonist MRS2578.
as §1, with “fluo-4, and results are shown in FIG. 10(A)-(K).” for “fluo-4.”

PSAPP mice [2] = test: Postmortem immunohistochemistry of plaque load in cortex and hippocampus; assay type: in vivo, mouse; conditions: for immunoreactivity of β1-40 (plaque load): i.p. for 4 and 6 consecutive days
Source text: (§2) Heterozygous mutant (K670N/M671L) APP (50% C57B6, 50% SJL) transgenic mice were crossed with heterozygous mutant (A246E) PS-1 (50% C57B6, 50% SJL) transgenic mice to generate heterozygous PSAPP transgenic mice (also referred to as PS-1/APP or PSAPP+/+ mice), which refers to animals heterozygous for the PS-1 A246E transgene and the APP K670N/M671L transgene. Non-transgenic control animals were littermates (also referred to as PSAPP_−/− mice) generated in the breeding for PSAPP transgenic animals. Mouse genotype was determined by Polymerase Chain Reaction (PCR). Both male and female mice of 6-7 months old were used for the experiments below. All animal experiments were performed in accordance with the Tufts Animal Care and Use Committee and with national regulations and policies.
Mice were perfused transcardially with 4% paraformaldehyde and 40 μm Coronal sections were collected. Sections were sequentially incubated in 0.3% H2O2 for 10 minutes, blocking solution for 2 hrs, blocking solution containing the primary antibody (rabbit anti-beta1-42; rabbit anti-beta1-40, from Chemicon International and rat anti-CD45) for 48 hours at 4° C., and blocking solution containing biotinylated antibody or fluorescently-labeled antibody for 2 hours at room temperature. Sections were visualized in a bright field microscope or a confocal microscope, and the optical density was obtained using MetaMorph software.
After repeated imaging, brains were fixed and subjected to postmortem immunohistochemistry with amyloid beta specific antibodies β1-40 and β1-42 to evaluate the plaque load (area occupied by immunostaining of plaque) in cortex and hippocampus.
PSB0474 was systemically administered to PSAPP mice via intraperitoneal injection for 2, 4 and 6 consecutive days. In one group, prior to evaluation and following to administration for 6 consecutive days, treatment was suspended for two weeks (6+2 weeks group). Brains were then fixed and plaque load was evaluated by immunostaining with the amyloid beta specific antibodies: β1-40 and β1-42. Representative images of plaque load in cortex and hippocampus from animals that received injections of PSB0474 according to the foregoing injection schedules are shown in FIG. 5(A)-(D). […] Whereas, when administration of PSB0474 was stopped for 2 weeks following six consecutive days of treatment (denoted as the 6+2 weeks group), β1-40 staining rebounded; although to a level lower than observed in mice treated with saline as a vehicle control. […]
To generate these graphs showing plaque load, mice were euthanized, brain sections cut and antibodies directed against Aβ 42 were used to disclose Aβ plaques. […] The algorithm then calculated the percent area of the field of view occupied by the plaques.

PSAPP mice [3] = test: Contextual fear conditioning test; assay type: in vivo, mouse
Source text: as §2
On day one, animals were trained in a fear conditioning apparatus for a total of 7 minutes with a two-pairing paradigm of cue and mild foot shock (a 30-s acoustic-conditioned stimulus, 80 dB; a 2-s shock stimulus, 0.5 mA). To evaluate contextual fear learning, the animals were returned to the training context 24 hours post-training, and freezing behavior was scored for 5 minutes. Freezing behavior was monitored by MotorMonitor (Hamilton Kinder) and scored every 5 seconds.
In this study, the fear conditioning associative learning paradigm was used as a rapid cognition assay for PSAPP mice. This study allowed us to probe cognitive function with a single training day followed in 24 hours by tests for contextual and cued fear learning. Contextual fear learning is dependent upon a brain area that has been implicated as a locus for cognitive decline in AD: the hippocampus. Two pairings of CS-US for fear conditioning were followed 24 hours later by testing for contextual and cued fear learning. Previous studies have reported that PSAPP animals appear to have a selective hippocampus-dependent impairment in associative learning following two pairings of conditioned stimuli for fear conditioning.
This represents a decrease in the cognitive impairment observed in the untreated mice.

PSAPP mice [4] = test: Tolerability of increased dose of PSB0474; assay type: in vivo, mouse; conditions: 1000× increase in dose
P2Y6 receptor [5] = target: T1, P2Y6 receptor; conditions: cited from earlier work
PSAPP mice [6] = test: Two-photon in vivo imaging of amyloid plaques in barrel cortex; parameters: species or system mouse
Source text: as §2
In this study, PSAPP mice were anesthetized using isoflurane and a thin-skull preparation was used to minimize the surface damage. Amyloid plaques were visualized with methoxyX04 labeling and blood plasma was labeled with Rhodamine dextran to facilitate re-localization of the same imaging area. Stack images were obtained using a two-photon system (Prairie Technologies) with excitation at 850 nm. The emission was detected by external photomultiplier tubes (525/70; DLCP 575; 607/45 nm).
Animals were anesthetized and immobilized in a stereotaxic frame. For each injection, 1 μl of 10 mM UDP or other suitable compounds in artificial cerebrospinal fluid (ACSF) as the vehicle were injected intraventricularly using the following coordinates: AP 0.2 mm, ML 1 mm, and DV 2.2 mm.
To evaluate the effect of UDP on plaque burden, two-photon microscopy was used to assess the amyloid plaques in the barrel cortex in living PSAPP mice. Amyloid plaques were stained by systemically administered methoxy-X04. One day prior to imaging, PSAPP mice were injected with methoxyX04 to label the amyloid plaques. On the imaging day, to facilitate the re-location of the same imaging area, blood plasma was labeled with Rhodamine dextran. Images were obtained from the same start- and end-point to ensure the same image volume.
The results were shown in a maximum intensity projection of a fluorescent stack containing 45 planes. Immediately after imaging, animals were injected with ACSF or UDP intracerebroventricularly (i.c.v.) and allowed to recover. On day 4, animals were subjected to a second period of imaging of the same regions studied on day 1 and the results are shown in FIG. 1(D)-(F). The similar pattern of angiopathy (shown by open arrows) indicated the same imaging area.

PSAPP mice [7] = test: Soluble Abeta level detected with ELISA; assay type: in vivo, mouse; conditions: UDP treatment
PSAPP mice [8] = test: Hippocampal long-term potentiation (LTP) recording; assay type: in vivo, mouse
Description: Hippocampal slices ([…] thick) were prepared from 6-month-old PSAPP mice. Baseline responses were obtained every 10 seconds and Input-output (I/O) curves, paired-pulse modification and LTP were successively measured. The stimulation intensity was set to a level that gives a value of 30% of the maximum obtained. LTP were induced by high frequency stimulation (HFS, 100 pulses at 100 Hz, four times) or by theta-burst stimulation (TBS, 10 bursts at 5 Hz, repeated 10 times in 15 s intervals).
Accumulated evidence has shown that amyloid peptides naturally secreted or isolated from Alzheimer's brains impair synaptic plasticity, especially hippocampal long-term potentiation (Walsh et al., 2002). Therefore, we further performed LTP recordings in PASPP mice and investigated whether P2Y6 receptor-mediated plaque clearance affects synaptic plasticity. […] First, it was observed that LTP at the schaffer collateral synapse within the CA1 region was depressed in PSAPP mice, as compared with littermates (FIG. 8(A)).

PSAPP mice [9] = test: Postmortem immunohistochemistry of plaque load in cortex and hippocampus; assay type: in vivo, mouse; conditions: for decrease in plaque load: acute i.c.v. UDP
P2Y2 receptor = target: T2, P2Y2 receptor (Homo sapiens, UniProt P41231); test: Ca2+ mobilizing effect in 1321N1 cells expressing P2Y2 (fluo-4); assay type: cell-based; conditions: sodium salt; 1321N1 human astrocytoma cells expressing P2Y2
T2 construct: expressed in transfected cells; host or cells: 1321N1 human astrocytoma cells
T2 sequence (P41231 whole entry): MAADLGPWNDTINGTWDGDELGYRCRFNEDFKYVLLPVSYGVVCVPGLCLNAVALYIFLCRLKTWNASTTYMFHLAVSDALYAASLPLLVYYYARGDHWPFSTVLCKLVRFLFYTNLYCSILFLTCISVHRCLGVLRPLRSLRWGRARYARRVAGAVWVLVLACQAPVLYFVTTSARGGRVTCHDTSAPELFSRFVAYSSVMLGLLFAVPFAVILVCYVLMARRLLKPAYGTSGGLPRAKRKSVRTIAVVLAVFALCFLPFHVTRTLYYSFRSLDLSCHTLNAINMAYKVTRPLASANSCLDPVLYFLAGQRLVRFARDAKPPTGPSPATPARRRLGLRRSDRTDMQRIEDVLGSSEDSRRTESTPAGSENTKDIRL
Description: (§3) Synthetic ligands were tested for activation of P2Y6 receptor by measuring receptor induced Ca^2+ changes with the fluorescent Ca^2+ indicator fluo-4. 1321N1 human astrocytoma cell lines either expressing P2Y2, P2Y4 or P2Y6 receptors were plated into 24-well plates. Two days after plating, fluorometric measurements were made and responses of cells to a serial dilution of ligands were determined. P2Y6 mediated Ca^2+ fluorescent change was determined by normalized accumulation of fluorescent change of 3 timepoints after ligand administration subtracted by value from ACSF control. Changes in fluorescent intensity were plotted corresponding to ligand concention in GraphPad. Dose-response curve and EC50 for each ligand was estimated using nonlinear curve fit and Sigmoidal dose-response analysis. […]
(§4) Synthetic ligands were tested for activation of P2Y6 receptor by measuring receptor induced Ca^2+ changes with the fluorescent Ca^2+ indicator fluo-4, and results are shown in FIG. 10(A)-(K). […] Two days after plating, fluorometric measurements were made and responses of cells to a serial dilution of ligands were determined. P2Y6 mediated Ca^2+ fluorescent change was determined by normalized accumulation of fluorescent change of 3 timepoints after ligand administration subtracted by value from ACSF control. […]

P2Y4 receptor = target: T3, P2Y4 receptor (Homo sapiens, UniProt P51582); test: Ca2+ mobilizing effect in 1321N1 cells expressing P2Y4 (fluo-4); assay type: cell-based; conditions: sodium salt; 1321N1 human astrocytoma cells expressing P2Y4
T3 construct: expressed in transfected cells; host or cells: 1321N1 human astrocytoma cells
T3 sequence (P51582 whole entry): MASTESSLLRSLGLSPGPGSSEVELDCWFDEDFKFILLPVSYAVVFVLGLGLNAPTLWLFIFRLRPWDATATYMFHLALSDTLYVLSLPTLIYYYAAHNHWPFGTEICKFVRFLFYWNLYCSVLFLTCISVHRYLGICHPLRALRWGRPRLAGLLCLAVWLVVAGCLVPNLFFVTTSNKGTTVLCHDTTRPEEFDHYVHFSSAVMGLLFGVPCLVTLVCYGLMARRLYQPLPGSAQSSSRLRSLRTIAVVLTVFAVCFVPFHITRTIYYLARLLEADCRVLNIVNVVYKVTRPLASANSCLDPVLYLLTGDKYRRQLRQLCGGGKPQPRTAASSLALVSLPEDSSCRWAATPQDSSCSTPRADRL
Description: as §3, §4

[10] = acute i.c.v. UDP, barrel cortex, day 4 vs day 1, P<0.01

T1 sequence (Q15077 whole entry): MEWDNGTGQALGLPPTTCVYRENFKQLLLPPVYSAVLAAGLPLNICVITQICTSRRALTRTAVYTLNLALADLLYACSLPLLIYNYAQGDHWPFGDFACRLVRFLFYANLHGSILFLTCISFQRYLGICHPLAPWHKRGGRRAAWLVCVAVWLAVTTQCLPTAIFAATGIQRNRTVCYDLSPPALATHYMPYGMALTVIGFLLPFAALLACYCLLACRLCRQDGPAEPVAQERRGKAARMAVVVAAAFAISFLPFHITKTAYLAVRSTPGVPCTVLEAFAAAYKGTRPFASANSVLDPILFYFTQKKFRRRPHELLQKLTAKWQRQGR

S=C=Nc1cccc(NC(=S)NCCCCNC(=S)Nc2cccc(N=C=S)c2)c1 [MRS2578]
effect of antagonist on ability of sodium salt of compound 5 to elevate Ca2+ signals (P2Y6 receptor [1]; P2Y6 expressing cells, MRS2578 added): attenuated

O=C(Cn1c(=O)ccn([C@@H]2O[C@H](COP(=O)(O)OP(=O)(O)O)[C@@H](O)[C@H]2O)c1=O)c1ccccc1 [PSB0474, 3-phenacyl-UDP]
β1-40 staining after stopping treatment (PSAPP mice [2]; 6 consecutive days i.p., then stopped for 2 weeks (6+2 weeks group), level lower than saline control): rebounded
immunoreactivity of β1-40 (plaque load) (PSAPP mice [2]; cortex): significantly decreased
effects on the efficacy endpoint at higher dose (PSAPP mice [2]; higher dose of 1 mg/kg, one week daily treatment): smaller effects
immunoreactivity of β1-40 (plaque load) (PSAPP mice [2]; hippocampus): significantly decreased
memory deficit compared to vehicle treatment (PSAPP mice [3]; FIG. 9C, one week treatment with 1 ug/kg): rescued the memory deficit
total freezing percentage in context test (PSAPP mice [3]; chronic injection of PSB0474, two different doses): increased
detrimental effects to the animal (PSAPP mice [4]): did not cause detrimental effects
EC50 (P2Y6 receptor [5]; P2Y6 receptor agonist): 70 nM
selectivity for P2Y6 receptor (P2Y6 receptor [5]): > 500 fold

O=c1ccn([C@@H]2O[C@H](COP(=O)(O)OP(=O)(O)O)[C@@H](O)[C@H]2O)c(=O)[nH]1 [UDP, uridine diphosphate]
day 4/day 1 ratios of plaque load (PSAPP mice [6]; FIG. 2D, UDP vs ACSF, barrel cortex): significant reductions
day 4/day 1 ratios, number of plaques (PSAPP mice [6]; FIG. 2E, UDP vs ACSF, barrel cortex): significant reductions
reduction in plaque load (PSAPP mice [6]; [10]): 17.2%
reduction in the number of plaques (PSAPP mice [6]; [10]): 12.6%
reduction in cross-sectional area of individual identified plaques (PSAPP mice [6]; acute i.c.v. UDP, second imaging session, P<0.01): 18.2%
soluble Aβ40 level (PSAPP mice [7]; FIG. 4E): decreased
soluble Aβ42 level (PSAPP mice [7]; FIG. 4F): decreased
freezing behavior compared to ACSF treatment (PSAPP mice [3]; FIG. 7C, UDP-treatment 3 days prior to the test): significantly improved
freezing behavior during 5 minute-testing time (PSAPP mice [3]; UDP treatment, during the first 4 minutes, not the last minute): increased freezing behavior
total freezing percentage (PSAPP mice [3]; acute UDP i.c.v., contextual test, ACSF control 18%±3%): 49%±5%
field excitatory postsynaptic potential (fEPSP), last 15 min potentiation (PSAPP mice [8]; UDP treatment, comparable to level in littermates): significant increase
LTP at schaffer collateral synapse, CA1 (PSAPP mice [8]; acute UDP treatment vs ACSF, HFS): reversed this LTP deficit
decrease in plaque load (PSAPP mice [9]; cortex, β1-40 antibody, p<0.05): 60%
decrease in plaque load (PSAPP mice [9]; cortex, β1-42 antibody, P<0.01): 48%
decrease in plaque load (PSAPP mice [9]; hippocampus, β1-40 antibody, p<0.01): 62%
decrease in plaque load (PSAPP mice [9]; hippocampus, β1-42 antibody, P<0.05): 47%

O=c1ccn([C@@H]2O[C@H](COP(=O)(O)OP(=O)(O)O)[C@H](O)C2O)c(=O)n1Cc1noc2ccccc12 (stereo partly shown) [compound 5]
elevating Ca2+ levels in P2Y2 receptor expressing cells (P2Y2 receptor): not effective
elevating Ca2+ levels in P2Y4 receptor expressing cells (P2Y4 receptor): not effective
freezing behavior compared to the control treatment (PSAPP mice [3]; FIG. 11, compound 5 prior to the test): significantly improved; also recorded: restored to a level equivalent to that observed in wildtype animals
total freezing percentage in the context test (PSAPP mice [3]; compound 5 i.p. daily for 7 consecutive days, 1 ug/kg or 1 mg/kg): increased
Aβ plaque load (%) in the cortex vs vehicle control (PSAPP mice [9]; FIG. 12A, β1-42 antibody, compound 5 i.p. 7 days): substantial decrease
Aβ plaque load (%) in the hippocampus vs vehicle control (PSAPP mice [9]; FIG. 12B, β1-42 antibody, compound 5 i.p. 7 days): substantial decrease
elevating Ca2+ levels in cells expressing P2Y6 receptors (P2Y6 receptor [1]; sodium salt, 1321N1 human astrocytoma cells expressing P2Y6): only effective
EC50 (P2Y6 receptor [1]; sodium salt, 1321N1 human astrocytoma cells expressing P2Y6, fluo-4 Ca2+): 12 nM

From US11072627B2, “Uridine diphosphate derivatives, compositions and methods for treating neurodegenerative disorders” (Tufts University, priority 2011, dated 2021)
